Measured values as given in patent US20030139438A1, “Diagnosis of the parkinsonian condition” (priority 2001, published 2003).

What was measured:
[1] = system: actions of metenkephalin; experiment: Naloxone challenge in reserpine-treated rat model of pre-symptomatic subjects; type: in vivo, rats
Method: (§1) Reserpine (3 mg/kg, s.c, in 3% glacial acetic acid) was administered to rats to deplete dopamine levels.
(§2) In this situation the animals represent a model of pre-symptomatic subjects, i.e. they have a dopamine depletion but no symptoms.
The parkinsonan symptoms were reversible and were not observed one hour after the naloxone injection where the animals returned to the presymptomatic state.

[2] = system: dopamine levels; experiment: Reserpine-induced dopamine depletion in rats; type: in vivo; conditions: 3 mg/kg s.c., after 48 hours
Method: as §1, §2

[3] = system: opioid receptor; experiment: Naltrexone challenge in reserpine-treated rats, locomotor activity (Benwick monitors); type: in vivo, Sprague-Dawley rats
Method: Reserpine was administered to rats to deplete dopamine levels. […] In this situation the animals represent a model of pre-symptomatic patients, i.e. they have a dopamine depletion but no overt symptoms.
Male Sprague-Dawley rats were split into two groups A and B. Rats in both groups received a subcutaneous administration of reserpine (3 mg/kg). The rats were allowed to recover for 48 hours post reserpine treatment at which point they are considered to represent a model of pre-symptomatic Parkinson's disease.
After the 48 hours Group A were treated with vehicle (water) and group B were treated with naltrexone (10 mg/kg) and placed in locomotor monitoring apparatus (see below).
The locomotion of the rats in Groups A and B following either vehicle or naltrexone treatment was measured over the 5 minute period immediately after drug administration using Benwick locomotor monitors. These locomotion monitors consist of a visually-shielded open-field arena, the perimeter of which is surrounded by a series of infra-red beams arranged at 5 cm intervals. PC-based software (Amlogger) assesses the number of beams broken. The number of beams broken as part of a locomotor movement (activity counts) was measured.

[4] = system: cynomolgus monkeys; experiment: Parkinsonian monkey rating scale after chronic MPTP administration; type: in vivo, Macaca fascicularis; conditions: scale 0-25
Method: (§3) Experiments were conducted on twenty five female cynomolgus monkeys (Macaca fascicularis, Shared Animal Health, Beijing, PR of China; mean age=3.1. ±0.3 years; mean weight=2.8 ±0.2 kg). Animals were housed in individual primate cages under controlled conditions of humidity (50±5%0, temperature (24 ±1° C.), and light (12 h light/dark cycles), food and water were available ad libitum and their care supervised by veterinarians skilled in the healthcare and maintenance of nonhuman primates. Experiments were carried out in accordance with European Economic Community (86/6091/EEC) guidelines for care of laboratory animals. The effect of nontreatment on both motor behaviour and PPE-A expression had been previously compared with that of the administration of saline in order to rule out any possible interference. Accordingly MPTP-treated animals were compared with “nontreated” controls in this study. This procedure has been chosen to minimise the number of animals used. In addition, brain tissues acquired for the present experiments are being used for further experiments.
(§4) Five monkeys were killed at the beginning of the study and were considered as day 0 (D0) controls. The remaining 20 were treated with daily (9:00 am) injections of MPTP hydrochloride (0.2 mg/kg, i.v.; Sigma, St Louis, Mo.) in saline according to a previously described protocol (Bezard et al., 1997 Neuroscience 81 p 399-404; Bezard et al., 1997 Brain Res. 766 p 107-112; and Bezard et al., 1999 Eur. J. Neurosci. 11 p 2167-2170). This protocol derives a reproducible MPTP cumulative dosing regime that leads to the first appearance of parkinsonian clinical signs after 15±1 injections (3.0±0.02 mg/kg). Five presymptomatic monkeys were killed on day 6 (i.e., after 6 injections; D6 Group), five presymptomatic monkeys at day 12 (i.e. after 12 injections; D12 group), five at day 15 after appearance of overt symptoms (i.e. after 15 injections; D15 group), and the remaining five fully parkinsonian monkeys at day 25 (i.e. after 15 injections; D25). All animals were killed by sodium pentobarbital overdose (150 mg/kg, i.v.) and the brains were removed quickly after death. Each brain was bisected along the midline and the two hemispheres were immediately frozen by immersion in isopentane (−45° C.) and then stored at −80° C. […]
(§5) Animal behavior was assessed daily (2 p.m) on a parkinsonian monkey rating scale (Bezard et al., 1997 Neuroscience 81 p399-404; and Bezard et al., 1997 Neuroreport 8 p435-438) using videotape recordings of monkeys in their cages in addition to clinical neurological evaluation. During each session two examiners evaluated the animals' levels of motor performance, coaxing them to perform various tasks by offering appetizing fruit. […]

[5] = system: striatal DA content; experiment: Neurochemical analysis of striatal DA by HPLC with electrochemical detection; type: in vivo, Macaca fascicularis
Method: (§6) Five monkeys were killed at the beginning of the study and were considered as day 0 (D0) controls. The remaining 20 were treated with daily (9:00 am) injections of MPTP hydrochloride (0.2 mg/kg, i.v.; Sigma, St Louis, Mo.) in saline according to a previously described protocol (Bezard et al., 1997 Neuroscience 81 p 399-404; Bezard et al., 1997 Brain Res. 766 p 107-112; and Bezard et al., 1999 Eur. J. Neurosci. 11 p 2167-2170). This protocol derives a reproducible MPTP cumulative dosing regime that leads to the first appearance of parkinsonian clinical signs after 15±1 injections (3.0±0.02 mg/kg). Five presymptomatic monkeys were killed on day 6 (i.e., after 6 injections; D6 Group), five presymptomatic monkeys at day 12 (i.e. after 12 injections; D12 group), five at day 15 after appearance of overt symptoms (i.e. after 15 injections; D15 group), and the remaining five fully parkinsonian monkeys at day 25 (i.e. after 15 injections; D25). All animals were killed by sodium pentobarbital overdose (150 mg/kg, i.v.) and the brains were removed quickly after death. Each brain was bisected along the midline and the two hemispheres were immediately frozen by immersion in isopentane (−45° C.) and then stored at −80° C. Tissue was sectioned at 20 μm in a cryostat at −17° C., thaw-mounted onto gelatin-subbed slides, dried on a slide warmer and stored at −80° C.
The extent of striatal DA denervation was assessed by measuring levels of DA, 3,4-dihydroxyphenylacetic acid (DOPAC) and homovanillic acid (HVA) in both the caudate nucleus and the putamen using high-pressure liquid chromatography with electrochemical detection as previously described (Bezard et al., 1997 Neuroscience 81 p399-404) with minor modifications. […] Pellets were retained for quantification of protein content by the Bradford assay (Bezard et al., 1997 Neuroscience 81 p 399-404). […] Concentrations of DA and metabolites were calculated using a computing integrator (Gold Nouveau V 1.6, Beckman). Mean and SEM values were calculated for both putamen and caudate nucleus for each group.

[6] = system: PPE-A mRNA; experiment: Preproenkephalin-A in situ hybridization in striatum; type: in vivo, Macaca fascicularis
Method: as §6
In situ hybridization histochemistry was performed as previously described by Henry et al. (1999 Exp. Neurol. 155 p204-220) using a ^35S-radiolabeled oligonucleotide probe (Gibco BRL) corresponding to amino acids 130-145 of the human sequence of PPE-A. One microliter of the oligonucleotide was tailed by the isotope of 37° C. in a mixture containing 10 μl sterile water, 12.5 μl reaction buffer (sodium cocodylate 120 mM and dithiothreitol 100 mM), and 2 μl terminal deoxynucleotide transferase (all reagents DuPont/NEN) with 7 μl of [^35S] ATP (82.5 μCi, NEN). […] One microliter of this solution was counted by a liquid scintillation counter (Tricarb, 1500 Packard) to asses the efficiency of labeling. […]
Densitomeric analysis of autoradiographs was performed using an image analysis system (Image Pro Plus, v3.0.01, Media Cybernetics L.P., Atlanta, Ga.) as previously described (Henry et al., supra). The optical density of the autoradiogram was assessed for the striatum at three rostrocaudal levels in accordance with the functional organisation of the striatum: a rostral level, including the caudate, putamen, and nucleus accumbens; a midlevel, including the caudate, putamen, and GPe; and a caudal level including the body of the caudate, the putamen, and both the GPe and GPi. […] Four sections per animal, per striatal level were analyzed by an examiner blind with regard to experimental condition. […]

[7] = system: cynomolgus monkeys; experiment: Bradykinesia test (time to pick up three pieces of fruit) after chronic MPTP; type: in vivo, Macaca fascicularis; conditions: maximum 60 s
Method: as §3, §4, §5

Question: Which results are given for C=CCN1CC[C@]23c4c5ccc(O)c4O[C@H]2C(=O)CC[C@@]3(O)[C@H]1C5 [naloxone]?
Answer: parkinsonian symptoms ([1]; 10 mg/kg i.p., rats 48 hours after reserpine 3 mg/kg s.c.): parkinsonian symptoms became manifest; parkinsonian symptoms one hour after the injection ([1]; 10 mg/kg i.p., reserpine-treated rats): not observed; parkinsonian symptoms in control animals not treated with reserpine ([1]; naloxone without reserpine): No parkinsonian symtoms were seen

Question: For COC(=O)[C@H]1[C@H]2C[C@@H]3c4[nH]c5cc(OC)ccc5c4CCN3C[C@H]2C[C@@H](OC(=O)c2cc(OC)c(OC)c(OC)c2)[C@@H]1OC [Reserpine], which dopamine level [2] is on record?
Answer: not less than 20 % of normal levels

Question: Which results are given for O=C1CC[C@@]2(O)[C@H]3Cc4ccc(O)c5c4[C@@]2(CCN3CC2CC2)[C@H]1O5 [naltrexone]?
Answer: parkinsonian symptoms ([3]; 10 mg/kg i.p., rats 48 hours after reserpine): parkinsonian symptoms appeared; activity counts versus vehicle treated group ([3]; 10 mg/kg, 5 minute period after administration, rats 48 hours after reserpine 3 mg/kg s.c., P<0.01): significantly less

Question: For CN1CC=C(c2ccccc2)CC1 [MPTP, 1-methyl-4-phenyl-1,2,3,6-tetrahydropyridine], which parkinsonian score ([4]; D6 group, 6 daily injections 0.2 mg/kg i.v.) is on record?
Answer: 0

Question: And the parkinsonian score ([4]; D12 group, 12 daily injections 0.2 mg/kg i.v.)?
Answer: 0

Question: What about the “parkinsonian score, median (range)” value ([4]; D15 group, 15 injections 0.2 mg/kg i.v.) of the same compound?
Answer: 11 (range 10-14)

Question: What about the “parkinsonian score, median (range)” value ([4]; D25 group, killed at day 25 after 15 injections) of the same compound?
Answer: 17 (range 15-19)

Question: What about the “reduction of DA level in the putamen compared to D0” value ([5]; D6 group) of the same compound?
Answer: 42.7%

Question: And the “depletion of DA in the putamen compared to D0” value ([5]; D12 group, asymptomatic)?
Answer: 56.3%

Question: What about the “decrease of DA level in the putamen compared to D0” value ([5]; D25 group) of the same compound?
Answer: 97.9%

Question: And the “PPE-A mRNA levels in striatum compared to D0” value ([6]; D6 group)?
Answer: no significant difference

Question: And the “PPE-A mRNA levels in striatum compared to D0” value ([6]; D12 group, asymptomatic)?
Answer: sharp increase

Question: What about the “PPE-A mRNA levels in striatum compared to D0” value ([6]; D15 group, mild parkinsonian symptoms) of the same compound?
Answer: same distribution of increased levels

Question: What about the “PPE-A mRNA levels in striatum compared to D0” value ([6]; D25 group, fully parkinsonian) of the same compound?
Answer: pronounced increases

Question: And the “mean duration of the bradykinesia test” value ([7]; D6 group, D0 controls 3.0±0.4 s)?
Answer: 2.4 ± 0.3 s

Question: And the “mean duration of the bradykinesia test” value ([7]; D12 group, D0 controls 3.0±0.4 s)?
Answer: 2.6 ± 0.5 s

Question: What about the “mean duration of the bradykinesia test” value ([7]; D15 group) of the same compound?
Answer: 19.9 ± 9.1 s

Question: And the “mean duration of the bradykinesia test” value ([7]; D25 group, could not perform the test)?
Answer: 60 s
